{"source": "paper PMC6879560", "about": "“Functional annotation of serine hydrolases in the asexual erythrocytic stage of Plasmodium falciparum” (Scientific Reports, 2019)", "target": "T1, Prodrug activation and resistance esterase (PfPARE) (Plasmodium falciparum, UniProt Q8IBZ2)", "T1 construct": "gene PF3D7_0709700; native 37 kDa species in saponin-isolated parasite lysate; also confirmed with endogenous C-terminal YFP fusion", "T1 sequence (Q8IBZ2 entry or part of it)": "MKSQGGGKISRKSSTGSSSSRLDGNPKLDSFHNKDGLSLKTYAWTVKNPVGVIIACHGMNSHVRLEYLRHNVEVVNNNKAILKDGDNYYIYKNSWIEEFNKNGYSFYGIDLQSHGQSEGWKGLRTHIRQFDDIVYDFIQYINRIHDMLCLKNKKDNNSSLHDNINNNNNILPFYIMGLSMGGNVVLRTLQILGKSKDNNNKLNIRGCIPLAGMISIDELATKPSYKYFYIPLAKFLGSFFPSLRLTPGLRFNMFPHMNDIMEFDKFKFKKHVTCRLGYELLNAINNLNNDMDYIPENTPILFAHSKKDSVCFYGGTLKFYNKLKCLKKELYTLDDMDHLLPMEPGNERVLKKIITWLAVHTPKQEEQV", "assay": "gel-based competitive ABPP with TAMRA-FP in parasite lysate; identity confirmed by YFP-tag shift", "type": "biochemical"}
{"smiles": "O=C(OC(C(F)(F)F)C(F)(F)F)N1CCN(Cc2cccc(Oc3ccccc3)c2)CC1", "note": "[JW642]", "values": [{"measurement": "IC50", "value": "2.5 ± 0.6", "unit": "nM"}]}
